# Data from patent US11555032B2, “Isoxazole derivatives as FXR agonists and methods of use thereof” (Enanta Pharmaceuticals, Inc., priority 2019, dated 2023).
# pEC50: −log10 of the molar value.
# Molecular target: T1, human FXR (NR1H4) (Homo sapiens, UniProt Q96RI1)
# T1 construct: host or cells: CHO (Chinese hamster ovary) reporter cells
# T1 sequence (Q96RI1 1-486): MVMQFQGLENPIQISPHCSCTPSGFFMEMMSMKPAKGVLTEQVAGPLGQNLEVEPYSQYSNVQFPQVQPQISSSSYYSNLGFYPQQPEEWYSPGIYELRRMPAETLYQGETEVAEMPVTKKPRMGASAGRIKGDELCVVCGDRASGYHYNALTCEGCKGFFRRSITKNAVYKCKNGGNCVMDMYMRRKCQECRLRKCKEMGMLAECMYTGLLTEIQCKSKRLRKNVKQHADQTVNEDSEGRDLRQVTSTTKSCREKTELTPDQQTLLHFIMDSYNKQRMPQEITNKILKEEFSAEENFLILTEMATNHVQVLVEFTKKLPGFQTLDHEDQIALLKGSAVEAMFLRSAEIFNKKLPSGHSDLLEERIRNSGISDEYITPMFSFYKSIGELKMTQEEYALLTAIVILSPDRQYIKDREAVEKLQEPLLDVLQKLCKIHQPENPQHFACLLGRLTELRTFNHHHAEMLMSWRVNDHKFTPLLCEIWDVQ
# Assay: Human FXR (NRIH4) Assay, luciferase reporter
# Assay type: cell-based
# Details: CHO reporter cells expressing human NR1H4, luciferase, 22 hours incubation
# Source text: Determination of a ligand mediated Gal4 promoter driven transactivation to quantify ligand binding mediated activation of FXR. FXR Reporter Assay kit purchased from Indigo Bioscience (Catalogue number: IB00601) to determine the potency and efficacy of compound developed by Enanta that can induce FXR activation. The principle application of this reporter assay system is to quantify functional activity of human FXR. The assay utilizes non-human mammalian cells, CHO (Chinese hamster ovary) cells engineered to express human NR1H4 protein (referred to as FXR). Reporter cells also incorporate the cDNA encoding beetle luciferase which catalyzes the substrates and yields photon emission. Luminescence intensity of the reaction is quantified using a plate-reading luminometer, Envision. Reporter Cells include the luciferase reporter gene functionally linked to an FXR responsive promoter. Thus, quantifying changes in luciferase expression in the treated reporter cells provides a sensitive surrogate measure of the changes in FXR activity. EC50 and efficacy (normalize to CDCA set as 100%) is determined by XLFit. The assay is according to the manufacturer's instructions. In brief, the assay was performed in white, 96 well plates using final volume of 100 ul containing cells with different doses of compounds. Retrieve Reporter Cells from −80° C. storage. Perform a rapid thaw of the frozen cells by transferring a 10 ml volume of 37° C. cell recovery medium into the tube of frozen cells. Recap the tube of Reporter Cells and immediately place it in a 37° C. water bath for 5-10 minutes. Retrieve the tube of Reporter Cell Suspension from the water bath. Sanitize the outside surface of the tube with a 70% alcohol swab, and then transfer it into the cell culture hood. Dispense 90 μl of cell suspension into each well of the 96-well Assay Plate. Transfer the plate into 37° C. incubator, allowing the cells adherent to the bottom of the well. Dilute compounds in Dilution Plate (DP), and administrate to cells at Assay Plate (AP). DMSO content of the samples was kept at 0.2%. Cells were incubated for additional 22 hours before luciferase activities were measured. Thirty minutes before intending to quantify FXR activity, remove Detection Substrate and Detection Buffer from the refrigerator and place them in a low-light area so that they may equilibrate to room temperature. Remove the plate's lid and discard all media contents by ejecting it into an appropriate waste container. Gently tap the inverted plate onto a clean absorbent paper towel to remove residual droplets. Cells will remain tightly adhered to well bottoms. Add 100 μl of luciferase detection reagent to each well of the assay plate. Allow the assay plate to rest at room temperature for at least 5 minutes following the addition of LDR. Set the instrument (Envision) to perform a single 5 second “plate shake” prior to reading the first assay well. Read time may be 0.5 second (500 mSec) per well. EC50 and Efficacy (normalize to CDCA set as 100%) is determined by XLFit.
# The efficacy was normalized to CDCA set as 100%.
row,Compound,pEC50
1,COC(=O)c1ccc(SC2C3CCC2CC(OCc2c(-c4ccccc4OC(F)(F)F)noc2C2CC2)C3)cc1 (stereo not drawn) [Example 11-12],6.30 to 7.60
2,O=C(O)c1ccc(SC2C3CCC2CC(OCc2c(-c4ccccc4OC(F)(F)F)noc2C2CC2)C3)cc1 (stereo not drawn) [Example 11-13],6.30 to 7.60
3,COC(=O)c1ccc(S(=O)(=O)C2C3CCC2CC(OCc2c(-c4ccccc4OC(F)(F)F)noc2C2CC2)C3)cc1 (stereo not drawn) [Example 11-14],6.30 to 7.60
4,O=C(O)c1ccc(S(=O)(=O)C2C3CCC2CC(OCc2c(-c4ccccc4OC(F)(F)F)noc2C2CC2)C3)cc1 (stereo not drawn) [Example 11-15],6.30 to 7.60
5,CCOC(=O)c1cc(F)c2nc(SC3C4CCC3CC(OCc3c(-c5ccccc5OC(F)(F)F)noc3C3CC3)C4)sc2c1 (stereo not drawn) [Example 11-16],6.30 to 7.60
6,O=C(O)c1cc(F)c2nc(SC3C4CCC3CC(OCc3c(-c5ccccc5OC(F)(F)F)noc3C3CC3)C4)sc2c1 (stereo not drawn) [Example 11-17],> 7.60
7,CCOC(=O)c1cc(F)c2nc(S(=O)(=O)C3C4CCC3CC(OCc3c(-c5ccccc5OC(F)(F)F)noc3C3CC3)C4)sc2c1 (stereo not drawn) [Example 11-18],< 6.30
8,"O=C(O)c1cccc2nc(SC3C4CCC3CC(OCc3c(-c5ccccc5OC(F)(F)F)noc3C3CC3)C4)cnc12 [Example 12, 2-(((1R,3r,5S,8s)-3-((5-cyclopropyl-3-(2-(trifluoromethoxy)phenyl)isoxazol-4-yl)methoxy)bicyclo[3.2.1]octan-8-yl)thio)quinoxaline-5-carboxylic acid]",> 7.60
9,N#Cc1cccc2ncc(NC3C4CCC3CC(OCc3c(-c5ccccc5OC(F)(F)F)noc3C3CC3)C4)nc12 (stereo not drawn) [Example 13-2],< 6.30
10,"FC(F)(F)Oc1ccccc1-c1noc(C2CC2)c1CO[C@H]1C[C@H]2CC[C@@H](C1)[C@@H]2Nc1cnc2c(-c3nnn[nH]3)cccc2n1 [Example 13-3, N-((1R,3r,5S,8s)-3-((5-cyclopropyl-3-(2-(trifluoromethoxy)phenyl)isoxazol-4-yl)methoxy)bicyclo[3.2.1]octan-8-yl)-5-(1H-tetrazol-5-yl)quinoxalin-2-amine]",> 7.60
11,FC(F)(F)Oc1ccccc1-c1noc(C2CC2)c1COC1CC2CCC(C1)C2Nc1nc2c(C3CC3)cc(-c3nnn[nH]3)cc2s1 (stereo not drawn) [Example 13-5],> 7.60
12,CC(C)Oc1cc(C#N)cc2sc(NC3C4CCC3CC(OCc3c(-c5ccccc5OC(F)(F)F)noc3C3CC3)C4)nc12 (stereo not drawn) [Example 13-6],> 7.60
13,CC(C)Oc1cc(-c2nnn[nH]2)cc2sc(NC3C4CCC3CC(OCc3c(-c5ccccc5OC(F)(F)F)noc3C3CC3)C4)nc12 (stereo not drawn) [Example 13-7],> 7.60
14,"CCOC(=O)c1cc(F)c2nc(SC3C4CCC3CC(NCc3c(-c5ccccc5OC(F)(F)F)noc3C3CC3)C4)sc2c1 [Example 14, ethyl 2-(((1R,3r,5S,8s)-3-(((5-cyclopropyl-3-(2-(trifluoromethoxy)phenyl)isoxazol-4-yl)methyl)amino)bicyclo[3.2.1]octan-8-yl)thio)-4-fluorobenzo[d]thiazole-6-carboxylate]",< 6.30
15,"O=C(O)c1cc(F)c2nc(S[C@@H]3[C@@H]4CC[C@H]3C[C@@H](NCc3c(-c5ccccc5OC(F)(F)F)noc3C3CC3)C4)sc2c1 [Example 14-2, 2-(((1R,3r,5S,8s)-3-(((5-cyclopropyl-3-(2-(trifluoromethoxy)phenyl)isoxazol-4-yl)methyl)amino)bicyclo[3.2.1]octan-8-yl)thio)-4-fluorobenzo[d]thiazole-6-carboxylic acid]",6.30 to 7.60
16,COC(=O)c1ccc2nc(SC3C4CCC3CC(NCc3c(-c5ccccc5OC(F)(F)F)noc3C3CC3)C4)[nH]c2c1 (stereo not drawn) [Example 14-3],6.30 to 7.60
17,"Fc1c(Br)cccc1CNC1C2CCC1CC(OCc1c(-c3ccccc3OC(F)(F)F)noc1C1CC1)C2 [Example 15, (1R,3r,5S,8s)-N-(3-bromo-2-fluorobenzyl)-3-((5-cyclopropyl-3-(2-(trifluoromethoxy)phenyl)isoxazol-4-yl)methoxy)bicyclo[3.2.1]octan-8-amine]",6.30 to 7.60
18,Fc1ccc(CCNC2C3CCC2CC(OCc2c(-c4ccccc4OC(F)(F)F)noc2C2CC2)C3)cc1 (stereo not drawn) [Example 15-2],< 6.30
